Laboratory results: patent US20160367620A1, “GLUTATHIONE” (priority 2015, published 2016)
Where “and” joins values, the source holds several entries; their conditions need not be identical. Equal entries are not always repeated. Where two headings read alike, the source gives them in different places.

What was measured:
[1] = tested on: monocyte-macrophages; conditions: by conjugation of HNE; cited from earlier work
[2] = tested on: HIV-1; conditions: human macrophages, exogenous GSH; cited from earlier work
[3] = tested on: Peripheral Blood Mononuclear Cells (PBMC's)
Method: A total of 10,000 glutathione assays were performed.
The Phase I/II data, was based on approximately 10,000 glutathione assays of peripheral blood mononuclear cells (PBMC's) of HIV positive people given the drug regimen.
The study detailed in Appendix B administered the glutathione to HIV infected, otherwise healthy males between 18 and 65, with CD4+ cell counts above 500, not on any other medications.
24 HIV positive people received glutathione in a clinical trial. The first dose of one gram was taken at 0 time, or 10:00 a.m., and the second dose at 3 hours, or 1:00p.m. A baseline was measured two weeks earlier, on the same patient. A temporary intravenous catheter was in place for 7 hours to permit frequent blood sampling at the numerous time points.

[4] = tested on: cytotoxic T-lymphocytes; conditions: mouse, injection of GSH on the third day post immunization; cited from earlier work
[5] = tested on: Mouse; conditions: pretreatment; cited from earlier work
[6] = tested on: HIV; conditions: chronically infected cells, exogenous GSH; cited from earlier work
[7] = tested on: Concanavalin A stimulated proliferation of splenocytes; conditions: rats, dietary GSH supplementation; cited from earlier work
[8] = tested on: NFκB and COX-2; conditions: cited from earlier work
[9] = tested on: HIV-1; conditions: cited from earlier work; for persistence of anti-HIV-1 effect in culture: single pulse exposure, monocyte/macrophages in vitro
[10] = human, in vivo, iv
Excerpt: The kinetics and the effect of glutathione on plasma and urine sulfhydryls were studied in ten healthy human volunteers.

[11] = cited from earlier work
[12] = tested on: high-affinity component of mitochondrial glutathione transport; conditions: stimulated by ATP; cited from earlier work
[13] = tested on: glucose-induced insulin secretion; conditions: infusion 10 mg/min for 120 min, cited from earlier work
[14] = tested on: guinea pigs; conditions: ascorbate deficient guinea pigs, 3.75 mmol/kg daily (1,152 mg/kg daily) in three divided doses; cited from earlier work
[15] = tested on: RPE cells; conditions: GSH supplemented in the medium; cited from earlier work
[16] = i.v. GSH coadministration; cited from earlier work
[17] = tested on: human IL-4 production; conditions: stimulated peripheral blood T cells, Th0- and Th2-like T cell clones; cited from earlier work
[18] = tested on: herpes viruses; conditions: cell culture, extracellular glutathione; cited from earlier work
[19] = tested on: human immunodeficiency virus (HIV) expression; conditions: U1 cells; cited from earlier work
[20] = tested on: HIV; conditions: 75 mg/kg in two equally divided doses
[21] = tested on: human venous endothelial cells and rat aortic smooth muscle cells; conditions: cited from earlier work
[22] = human, in vivo, cited from earlier work
[23] = tested on: microglial cells; conditions: NO and superoxide generated via iNOS and NADPH-oxidase; cited from earlier work
[24] = cited from earlier work; remark: listed apart in the source
[25] = tested on: hepatocellular carcinoma; conditions: 5 g oral per day, two female patients who survived 1 year; cited from earlier work
[26] = tested on: Mouse; conditions: cited from earlier work
[27] = rat, plasma; cited from earlier work
[28] = 1,200 mg/day i.v.; cited from earlier work
[29] = tested on: mouse neuroblastoma cells; conditions: coadministration; cited from earlier work
[30] = human, in vivo, po, 15 mg/kg; cited from earlier work
[31] = tested on: murine macrophage J774 cells; conditions: pretreatment; cited from earlier work
[32] = tested on: NFκB activation by LPS; conditions: rats; cited from earlier work
[33] = tested on: HIV-1 LTR; conditions: Jurkat cells; cited from earlier work
[34] = tested on: influenza virus specific lymphocytes; conditions: cited from earlier work
[35] = tested on: human alveolar macrophages (AM); conditions: AM previously exposed to LPS; cited from earlier work
[36] = tested on: HUVEC and QG90 cell; conditions: pretreatment of HUVEC, IL-1 induced; cited from earlier work

Compound: N[C@@H](CCC(=O)N[C@@H](CS)C(=O)NCC(=O)O)C(=O)O [GSH, gamma-glutamyl-cysteinyl-glycine]
- macrophage death [1]: protected against macrophage death
- production of p24 gag protein and virus infectivity [2]: strongly suppressed
- intracellular glutathione insufficiency ([3]; PBMC's of HIV positive people): correction of the intracellular glutathione insufficiency was evident
- dose dependence of PBMC glutathione ([3]; in vivo): dose response relationship
- safety ([3]; in vivo): no evidence of toxicities
- absorption and distribution within the PBMC completed ([3]; male, human, in vivo, po): 60 min
- share absorbed and intracellular ([3]; male, human, in vivo, po): 80%
- start of distribution into PBMC's / absorption after oral ingestion ([3]; male, human, in vivo, po): ≤ 0.5 h
- augmentation of cytotoxic activity [4]: 5 fold
- morphine-induced lethality [5]: protects against morphine-induced lethality
- virus infectivity, budding and release of virus particles [6]: strongly suppresses
- age-associated decline of immune response [7]: reverse age-associated decline of immune response
- activation of NFκB and COX-2 by H. pylori infection [8]: inhibited
- HIV-1 expression in peripheral blood mononuclear cells (PBMC) ([9]; in vitro): blocked or substantially reduced
- cellular toxicity in monocyte/macrophages ([9]; in vitro): without producing detectable cellular toxicity
- duration of suppression of HIV production ([9]; infected monocytes, intracellular glutathione raised to the high end of the normal range): about 35 days
- HIV-1 p24 antigen levels and reverse transcriptase activity ([9]; single pulse exposure of HIV-1-infected monocyte/macrophages): sustained, concentration-dependent decrease
- persistence of anti-HIV-1 effect in culture [9]: at least 35 days
- persistence of anti-HIV-1 effect in culture ([9]; listed as glutathione): 35 days
- half-life [10]: 14.1-9.2 minutes
- benefit ([11]; 3 grams daily for three months, 46 AIDS patients): no benefit was conclusively demonstrated
- adverse effects ([11]; human, in vivo): No significant GSH-related adverse effects were reported
- V max [12]: approximately 0.5 n mol/min per mg of protein
- insulin clearance and action [13]: No effect
- glucose-induced insulin secretion ([13]; patients with IGT): significantly potentiated glucose-induced insulin secretion
- toxicity [14]: toxic
- growth of RPE cell cultures [15]: thrive
- nephrotoxicity of cisplatin and/or cyclophosphamide combination therapy [16]: reduces associated nephrotoxicity
- human IL-4 production [17]: decreased in a dose-dependent manner
- reproduction of herpes viruses [18]: inhibited or reduced
- cytotoxic or cytostatic effects [19]: absence of cytotoxic or cytostatic effects
- induction of HIV expression mediated by PMA, TNF-α, or IL-6 [19]: suppressed in a dose-dependent fashion
- survival after starting on GSH ([20]; four far advanced AIDS patients who followed the regimen): 3 years
- CD4+ cell counts ([20]; four patients): did not restore their CD4+ cell counts to any extent
- peroxynitrite induced suppression of mitochondrial respiration, nitrotyrosine formation, protein oxidation, DNA single strand breakage [21]: attenuated
- volume of distribution of exogenous glutathione ([22]; iv): 176-107 MI/Kg
- plasma concentration of total cyst(e)ine [22]: decreased
- peroxynitrite formation [23]: significantly decreased peroxynitrite formation
- systolic and diastolic blood pressure ([24]; 1,844 mg i.v. bolus, hypertensive patients and non-hypertensive diabetics): rapid and significant decrease in both systolic and diastolic blood pressure
- blood pressure ([24]; 1,844 mg i.v. bolus, normal healthy subjects): no effect
- return of blood pressure to baseline ([24]; 1,844 mg i.v. bolus): ≤ 30 min
- blood pressure values ([24]; 3,699 mg dose, normal subjects): significant decrease in the blood pressure values in normal subjects
- tumor growth [25]: regression or stagnation of their tumor growth
- LD50 ([26]; Intramuscular): 4000 mg/kg
- LD50 ([26]; Intraperitoneal): 4020 mg/kg and 6815 mg/kg
- LD50 ([26]; Intravenous): 2238 mg/kg
- LD50 ([26]; Oral): 5000 mg/kg
- LD50 ([26]; Subcutaneous): 5000 mg/kg
- share of the remaining 30% as GSSG [27]: 9.5%
- share of the remaining 30% as the mixed disulfide with cysteine [27]: 62.6%
- hematologic parameters (hematocrit, hemoglobin, blood count) compared to baseline [28]: significantly increase studied hematologic parameters
- deleterious effects of methylmercury [29]: largely prevented
- rise of plasma glutathione levels over the basal concentration [30]: 1.5-10 fold

Compound: CC(=O)N[C@@H](CS)C(=O)O [NAC, N-Acetyl-L-Cysteine]
- activation of NFκB and COX-2 by H. pylori infection [8]: inhibited
- protection of macrophages against SNAP [31]: protected
- NFκB activation by LPS [32]: decreased
- decrease of lung lavage neutrophil count [32]: six fold
- human IL-4 production [17]: decreased in a dose-dependent manner
- induction of HIV-1 LTR-mediated gene expression by TNF-α and Tat [33]: significantly suppressed
- cytotoxic or cytostatic effects [19]: absence of cytotoxic or cytostatic effects
- induction of HIV expression mediated by PMA, TNF-α, or IL-6 [19]: suppressed in a dose-dependent fashion
- IFN γ production [34]: increased
- influenza virus specific lymphocyte proliferation [34]: increased
- specific activity of influenza specific CD8+ CTL's [34]: enhanced
- IL-12 secretion [35]: enhanced
- cell-to-cell attachment of cancer cells to HUVEC [36]: efficiently blocked the cell-to-cell attachment in a dose-dependent manner
